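Following 48 hours of exposure in 96-well plates, responses at five concentrations were used to interpolate endpoints linearly. GI50 marks 50% less growth.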 The source made the active and inactive calls. Cut-off read from the data, not from the text of the source: active = GI50 up to about 1.1 µM and inactive = higher.
What was measured:
Assay in all cases: NCI-60 cell line screen, 48 h
A549 = system: A549
UACC-257 = system: UACC-257
DLD-1 = system: DLD-1
Malme-3M = system: Malme-3M
KM12 = system: KM12
SNB-19 = system: SNB-19
K562 = system: K562
RPMI-8226 = system: RPMI-8226
MOLT-4 = system: MOLT-4
HOP-62 = system: HOP-62
HCT-15 = system: HCT-15
HOP-92 = system: HOP-92
SK-OV-3 = system: SK-OV-3
HCC 2998 = system: HCC 2998
NCI-H460 = system: NCI-H460
SK-MEL-28 = system: SK-MEL-28
EKVX = system: EKVX
SK-MEL-2 = system: SK-MEL-2
COLO 205 = system: COLO 205
OVCAR-3 = system: OVCAR-3
SK-MEL-5 = system: SK-MEL-5
TK-10 = system: TK-10
SN12C = system: SN12C
NCI-H522 = system: NCI-H522
SNB-75 = system: SNB-75
UACC-62 = system: UACC-62
HL-60 = system: HL-60
SF-295 = system: SF-295
OVCAR-5 = system: OVCAR-5
XF498 = system: XF498
CCRF-CEM = system: CCRF-CEM
CAKI-1 = system: CAKI-1
ACHN = system: ACHN
SNB-78 = system: SNB-78
UO-31 = system: UO-31
OVCAR-4 = system: OVCAR-4
NCI-H23 = system: NCI-H23
M14 = system: M14
SF-268 = system: SF-268
LXFL 529 = system: LXFL 529
OVCAR-8 = system: OVCAR-8
RXF 393 = system: RXF 393
M19-MEL = system: M19-MEL
786-0 = system: 786-0
DMS-114 = system: DMS-114
KM-20L2 = system: KM-20L2
IGROV-1 = system: IGROV-1
SW-620 = system: SW-620
RXF 631 = system: RXF 631
LOX IMVI = system: LOX IMVI
U-251 = system: U-251
A498 = system: A498
HCT-116 = system: HCT-116
SF-539 = system: SF-539
SR = system: SR
NCI-H226 = system: NCI-H226
HT-29 = system: HT-29
DMS-273 = system: DMS-273

O=C(O)c1cc(=O)c2[nH]c3ccccc3c2s1
GI50 (A549): > 100 µM (inactive) | GI50 (UACC-257): > 100 µM (inactive) | GI50 (DLD-1): > 100 µM (inactive) | GI50 (Malme-3M): > 100 µM (inactive) | GI50 (KM12): > 100 µM (inactive) | GI50 (SNB-19): > 100 µM (inactive) | GI50 (K562): > 100 µM (inactive) | GI50 (RPMI-8226): > 100 µM (inactive) | GI50 (MOLT-4): > 100 µM (inactive) | GI50 (HOP-62): > 100 µM (inactive) | GI50 (HCT-15): > 100 µM | GI50 (HOP-92): > 100 µM (inactive) | GI50 (SK-OV-3): > 100 µM (inactive) | GI50 (HCC 2998): > 100 µM (inactive) | GI50 (NCI-H460): > 100 µM (inactive) | GI50 (SK-MEL-28): > 100 µM (inactive) | GI50 (EKVX): > 100 µM (inactive) | GI50 (SK-MEL-2): > 100 µM (inactive) | GI50 (COLO 205): > 100 µM (inactive) | GI50 (OVCAR-3): > 100 µM (inactive) | GI50 (SK-MEL-5): > 100 µM (inactive) | GI50 (TK-10): > 100 µM (inactive) | GI50 (SN12C): > 100 µM (inactive) | GI50 (NCI-H522): > 100 µM (inactive) | GI50 (SNB-75): 41.4 µM (inactive) | GI50 (UACC-62): > 100 µM (inactive) | GI50 (HL-60): > 100 µM (inactive) | GI50 (SF-295): > 100 µM (inactive) | GI50 (OVCAR-5): > 100 µM (inactive) | GI50 (XF498): > 100 µM (inactive) | GI50 (CCRF-CEM): > 100 µM (inactive) | GI50 (CAKI-1): > 100 µM (inactive) | GI50 (ACHN): > 100 µM (inactive) | GI50 (SNB-78): > 100 µM (inactive) | GI50 (UO-31): > 100 µM (inactive) | GI50 (OVCAR-4): > 100 µM (inactive) | GI50 (NCI-H23): > 100 µM (inactive) | GI50 (M14): > 100 µM (inactive) | GI50 (SF-268): > 100 µM (inactive) | GI50 (LXFL 529): > 100 µM (inactive) | GI50 (OVCAR-8): > 100 µM (inactive) | GI50 (RXF 393): > 100 µM (inactive) | GI50 (M19-MEL): > 100 µM (inactive) | GI50 (786-0): > 100 µM (inactive) | GI50 (DMS-114): > 100 µM (inactive) | GI50 (KM-20L2): > 100 µM (inactive) | GI50 (IGROV-1): > 100 µM (inactive) | GI50 (SW-620): > 100 µM (inactive) | GI50 (RXF 631): > 100 µM (inactive)

N#CCCN(CCC#N)c1ccc(/C=C2\N=C(CN3C(=O)c4ccccc4C3=O)OC2=O)cc1
GI50 (A549): > 100 µM (inactive) | GI50 (UACC-257): > 100 µM (inactive) | GI50 (LOX IMVI): > 100 µM (inactive) | GI50 (Malme-3M): > 100 µM (inactive) | GI50 (KM12): > 100 µM (inactive) | GI50 (SNB-19): > 100 µM (inactive) | GI50 (K562): > 100 µM (inactive) | GI50 (RPMI-8226): 39.3 µM (inactive) | GI50 (MOLT-4): > 100 µM (inactive) | GI50 (U-251): > 100 µM (inactive) | GI50 (HOP-62): > 100 µM (inactive) | GI50 (HCT-15): > 100 µM | GI50 (SK-OV-3): > 100 µM (inactive) | GI50 (HCC 2998): > 100 µM (inactive) | GI50 (NCI-H460): > 100 µM (inactive) | GI50 (SK-MEL-28): > 100 µM (inactive) | GI50 (A498): > 100 µM (inactive) | GI50 (EKVX): > 100 µM (inactive) | GI50 (SK-MEL-2): > 100 µM (inactive) | GI50 (OVCAR-3): > 100 µM (inactive) | GI50 (HCT-116): > 100 µM (inactive) | GI50 (SK-MEL-5): > 100 µM (inactive) | GI50 (SN12C): > 100 µM (inactive) | GI50 (NCI-H522): 89.7 µM (inactive) | GI50 (SNB-75): > 100 µM (inactive) | GI50 (SF-539): > 100 µM (inactive) | GI50 (UACC-62): > 100 µM (inactive) | GI50 (HL-60): > 100 µM (inactive) | GI50 (SF-295): > 100 µM (inactive) | GI50 (OVCAR-5): > 100 µM (inactive) | GI50 (XF498): > 100 µM (inactive) | GI50 (CAKI-1): > 100 µM (inactive) | GI50 (ACHN): > 100 µM (inactive) | GI50 (UO-31): > 100 µM (inactive) | GI50 (SR): > 100 µM (inactive) | GI50 (OVCAR-4): > 100 µM (inactive) | GI50 (NCI-H226): > 100 µM (inactive) | GI50 (M14): > 100 µM (inactive) | GI50 (SF-268): > 100 µM (inactive) | GI50 (LXFL 529): > 100 µM (inactive) | GI50 (OVCAR-8): > 100 µM (inactive) | GI50 (M19-MEL): > 100 µM (inactive) | GI50 (786-0): > 100 µM (inactive) | GI50 (DMS-114): > 100 µM (inactive) | GI50 (HT-29): > 100 µM (inactive) | GI50 (DMS-273): > 100 µM (inactive) | GI50 (KM-20L2): > 100 µM (inactive) | GI50 (IGROV-1): > 100 µM (inactive) | GI50 (SW-620): > 100 µM (inactive) | GI50 (RXF 631): > 100 µM (inactive)

COC(=O)c1cc(O)ccc1O [METHYL 2,5-DIHYDROXYBENZOATE]
GI50 (A549): > 100 µM (inactive) | GI50 (UACC-257): > 100 µM (inactive) | GI50 (LOX IMVI): > 100 µM (inactive) | GI50 (Malme-3M): > 100 µM (inactive) | GI50 (KM12): > 100 µM (inactive) | GI50 (SNB-19): > 100 µM (inactive) | GI50 (K562): > 100 µM (inactive) | GI50 (RPMI-8226): > 100 µM (inactive) | GI50 (MOLT-4): > 100 µM (inactive) | GI50 (U-251): > 100 µM (inactive) | GI50 (HOP-62): > 100 µM (inactive) | GI50 (HCT-15): > 100 µM | GI50 (HOP-92): > 100 µM (inactive) | GI50 (SK-OV-3): > 100 µM (inactive) | GI50 (HCC 2998): > 100 µM (inactive) | GI50 (NCI-H460): > 100 µM (inactive) | GI50 (SK-MEL-28): > 100 µM (inactive) | GI50 (EKVX): > 100 µM (inactive) | GI50 (SK-MEL-2): > 100 µM (inactive) | GI50 (COLO 205): > 100 µM (inactive) | GI50 (OVCAR-3): > 100 µM (inactive) | GI50 (SK-MEL-5): > 100 µM (inactive) | GI50 (TK-10): > 100 µM (inactive) | GI50 (SN12C): > 100 µM (inactive) | GI50 (NCI-H522): 93.1 µM (inactive) | GI50 (SNB-75): > 100 µM (inactive) | GI50 (SF-539): > 100 µM (inactive) | GI50 (UACC-62): > 100 µM (inactive) | GI50 (HL-60): > 100 µM (inactive) | GI50 (SF-295): > 100 µM (inactive) | GI50 (OVCAR-5): > 100 µM (inactive) | GI50 (XF498): > 100 µM (inactive) | GI50 (CCRF-CEM): > 100 µM (inactive) | GI50 (CAKI-1): > 100 µM (inactive) | GI50 (ACHN): > 100 µM (inactive) | GI50 (SNB-78): > 100 µM (inactive) | GI50 (UO-31): > 100 µM (inactive) | GI50 (OVCAR-4): > 100 µM (inactive) | GI50 (NCI-H226): > 100 µM (inactive) | GI50 (M14): > 100 µM (inactive) | GI50 (SF-268): > 100 µM (inactive) | GI50 (LXFL 529): > 100 µM (inactive) | GI50 (OVCAR-8): > 100 µM (inactive) | GI50 (RXF 393): > 100 µM (inactive) | GI50 (M19-MEL): > 100 µM (inactive) | GI50 (786-0): > 100 µM (inactive) | GI50 (DMS-114): > 100 µM (inactive) | GI50 (HT-29): > 100 µM (inactive) | GI50 (DMS-273): > 100 µM (inactive) | GI50 (IGROV-1): > 100 µM (inactive) | GI50 (SW-620): > 100 µM (inactive) | GI50 (RXF 631): > 100 µM (inactive)
